The assay relates to db/db mice (BKS.Cg-m+/+Lepr^db/J). Description: In vivo efficacy: control of body mass in db/db mice. Conditions: five week old at start, ad libitum p.o. in drinking water (5 mM chromium, pH 5.8), on average 1 mg/kg/day, over 22 weeks, control mice receiving water reached 43 g. The method, then: The mice were otherwise fed normal chow. Over the course of 22 weeks, the mice consumed on average 1 mg/kg/day of the compound. Mice on treatment reached an average mass of 37 g, while control mice receiving water reached an average mass of 43 g.

Take Chromium Quinolinate [Example 1]: the average mass reached is listed as 37 g.
